According to patent US20120094007A1, “METHOD FOR THE IMMOBILIZATION OF CATIONIC ACTIVE INGREDIENTS ON SURFACES” (BASF SE, priority 2010, published 2012):
Where no end group is shown, it is not given here.

Key:
Escherichia coli = assay: static biofilm assay on antimicrobially finished silicone surfaces (cfu/cm^2); assay type: cell-based; settings: silicone surface, after intensive washing
Description: (§1) The effect of the antimicrobial finishing of the investigated surfaces was determined by means of a […] biofilm assay. For this, the surfaces to be tested were cut into round disks which fit into the holes of 24-well microtiter plates. In order to prevent the surfaces from slipping during the assay, the surfaces were immobilized on the bottom of the microtiter plates with the help of glass joint grease. The formation of biofilms was carried out starting from a preculture. For this, 20 ml of the standard commercial TSBY medium (Difco Laboratories, MI, USA) were inoculated with the help of a steady-state overnight culture of Staphylococcus epidermidis DSM1798, Escherichia coli DSM 5698, Proteus mirabilis DSM 4479 or Escherichia coli BL21 (DE3) with an optical density of 0.1. The preculture was incubated for 2 to 4 hours with agitation (at 200 rpm) and 37° C. until an optical density of from 2 to 3 was reached. In order to start the biofilm assay, the preculture was diluted to an optical density of 0.0004 in 5% TSBY in saline (0.9% NaCl) (ca. 10^5 cfu/ml). 1 ml of this was placed onto the surfaces in the 24-well plate and then incubated at 37° C. with gentle vibration at 50 rpm (revolutions per minute), so that a biofilm could form on the surface. The biofilm on the surfaces was analyzed after one hour (1 h) and after 24 hours (24 h) (and optionally 5 hours). For this, the planktonic cells were removed. The surfaces were then removed from the microtiter plate and briefly washed in sodium chloride solution, saline (0.9% NaCl). The adherent cells in the biofilm were then detached from the surface by means of an ultrasound treatment. For this purpose, the surfaces were transferred to a Falcon tube (50 ml volume) with 2 ml of saline and subjected to ultrasound for five minutes in an ultrasound water bath. The resulting bacterial suspension was diluted and plated out on TSBY agar plates. After 18 hours at 37, the resulting colonies were counted and back-calculated to the number of cells on the surface.

[1] = system: Staphylococcus epidermidis DSM1798; assay: as above; assay type: cell-based; settings: silicone surface, conjugates adsorbed alone from 10 mg/ml (P18 equivalents) in PBS; after washing
Description: as §1

PEI-P18 conjugates: polyethyleneimine (25 KDa) activated with SMCC and reacted with P18cys (KWKLFKKIPKFLHLAKKFC; SEQ ID NO: 27) (also: conjugated to polyethyleneimine (25 kDa) via SMCC)
biofilm formation by E. coli (Escherichia coli; conjugates adsorbed alone from 10 mg/ml (P18 equivalents) in PBS): not retained on the surface so strongly that after intensive washing enough active ingredient is present to prevent biofilm formation
biofilm formation by E. coli (Escherichia coli; two-step method: hydrophobin A coating (0.5 mg/ml), then conjugates 10 mg/ml (P18 equivalents) in PBS): effective even after intensive washing
formation of a biofilm due to S. epidermidis [1]: able to prevent the formation of a biofilm
